Tests used:
Experiment in all cases: relative viability (nuclei count vs DMSO), 5 days (fraction); higher = more cells survive
[1] = compound: COc1cc(-c2nn([C@H]3CC[C@H](N4CCN(C(C)=O)CC4)CC3)c3ncnc(N)c23)ccc1NC(=O)c1cc2ccccc2n1C + COc1cc2c(Oc3ccc(NC(=O)C4(C(=O)Nc5ccc(F)cc5)CC4)cc3F)ccnc2cc1OCCCN1CCOCC1 [Foretinib] (partner 0.25 µM)
Outline: (§1)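 Values are medians from duplicate plates. Each reflects relative viability, defined as the nuclei count of treated wells over that of vehicle wells. Lung cancer cell lines in 1536-well plates were pin-tool dosed one day after seeding with one drug alone or with a fixed anchor-drug dose plus five library-drug doses (not always all listed) in √10 steps, then fixed, stained and imaged at 4× after 5 days.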

[2] = compound: COc1cc(-c2nn([C@H]3CC[C@H](N4CCN(C(C)=O)CC4)CC3)c3ncnc(N)c23)ccc1NC(=O)c1cc2ccccc2n1C + Cc1nc(Nc2ncc(C(=O)Nc3c(C)cccc3Cl)s2)cc(N2CCN(CCO)CC2)n1 [Dasatinib] (partner 0.075 µM)
Outline: as §1

[3] = compound: COc1cc(-c2nn([C@H]3CC[C@H](N4CCN(C(C)=O)CC4)CC3)c3ncnc(N)c23)ccc1NC(=O)c1cc2ccccc2n1C + Nc1nc2[nH]cc(CCc3ccc(C(=O)N[C@@H](CCC(=O)O)C(=O)O)cc3)c2c(=O)[nH]1 [Pemetrexed] (partner 0.2 µM)
Outline: as §1

[4] = compound: CO[C@@H]1[C@H](N(C)C(=O)c2ccccc2)C[C@H]2O[C@]1(C)n1c3ccccc3c3c4c(c5c6ccccc6n2c5c31)C(=O)NC4 [Midostaurin] + Cc1nc(Nc2ncc(C(=O)Nc3c(C)cccc3Cl)s2)cc(N2CCN(CCO)CC2)n1 [Dasatinib] (partner 0.075 µM)
Outline: as §1

[5] = compound: CO[C@@H]1[C@H](N(C)C(=O)c2ccccc2)C[C@H]2O[C@]1(C)n1c3ccccc3c3c4c(c5c6ccccc6n2c5c31)C(=O)NC4 [Midostaurin] + CC(=O)Nc1cccc(-n2c(=O)n(C3CC3)c(=O)c3c(Nc4ccc(I)cc4F)n(C)c(=O)c(C)c32)c1 [Trametinib] (partner 0.02 µM)
Outline: as §1

UMC-11
relative viability ([1]; first compound 0.0128 µM): 0.967 | relative viability ([1]; first compound 0.04048 µM): 1.07 | relative viability ([1]; first compound 0.128 µM): 0.943 | relative viability ([1]; first compound 1.28 µM): 0.806 | relative viability ([2]; first compound 0.0128 µM): 0.49 | relative viability ([2]; first compound 0.04048 µM): 0.468 | relative viability ([2]; first compound 0.128 µM): 0.42 | relative viability ([2]; first compound 1.28 µM): 0.446 | relative viability ([3]; first compound 0.0128 µM): 0.694 | relative viability ([3]; first compound 0.04048 µM): 0.865 | relative viability ([3]; first compound 0.128 µM): 0.809 | relative viability ([3]; first compound 1.28 µM): 0.576 | relative viability ([4]; first compound 0.01 µM): 0.362 | relative viability ([4]; first compound 0.03162 µM): 0.403 | relative viability ([4]; first compound 0.1 µM): 0.444 | relative viability ([4]; first compound 0.3162 µM): 0.344 | relative viability ([5]; first compound 0.01 µM): 0.698 | relative viability ([5]; first compound 0.03162 µM): 0.656 | relative viability ([5]; first compound 0.1 µM): 0.691 | relative viability ([5]; first compound 0.3162 µM): 0.562
